Laboratory results taken from the kinase profiling compilation of Christmann-Franck et al. (2016).

Columns and labels:
Test in all cases: KINOMEscan competition binding
WEE2 (human) = WEE2 (human) (UniProt P0C1S8); details: compound 10.0 µM
RIPK4 (human) = RIPK4 (human) (UniProt P57078); details: compound 10.0 µM
NEK5 (human) = NEK5 (human) (UniProt Q6P3R8); details: compound 10.0 µM
PKN3 (M.tuberculosis) = PKN3 (M.tuberculosis) (UniProt Q6P5Z2); details: compound 10.0 µM
MAPK12 (human) = MAPK12 (human) (UniProt P53778); details: compound 10.0 µM
[1] = system: EGFR (human), P00533 [L858R]; details: compound 10.0 µM
PAK2 (human) = PAK2 (human) (UniProt Q13177); details: compound 10.0 µM
NEK7 (human) = NEK7 (human) (UniProt Q8TDX7); details: compound 10.0 µM
Sequence of NEK7 (human) (Q8TDX7 whole entry, looked up): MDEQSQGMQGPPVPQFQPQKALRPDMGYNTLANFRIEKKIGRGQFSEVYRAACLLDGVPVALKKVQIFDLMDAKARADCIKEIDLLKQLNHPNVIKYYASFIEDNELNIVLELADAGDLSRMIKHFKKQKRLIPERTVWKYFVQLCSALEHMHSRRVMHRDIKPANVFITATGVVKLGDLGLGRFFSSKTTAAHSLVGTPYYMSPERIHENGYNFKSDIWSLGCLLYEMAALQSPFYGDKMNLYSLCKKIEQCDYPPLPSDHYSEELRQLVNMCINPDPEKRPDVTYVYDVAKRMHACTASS

IRAK3 (human) = IRAK3 (human) (UniProt Q9Y616); details: compound 10.0 µM
KIT (human) = KIT (human) (UniProt P10721); details: compound 10.0 µM
CAMK1G (human) = CAMK1G (human) (UniProt Q96NX5); details: compound 10.0 µM
PDGFRB (human) = PDGFRB (human) (UniProt P09619); details: compound 10.0 µM
RPS6KA4 KD2 (human) = RPS6KA4 KD2 (human) (UniProt O75676); details: compound 10.0 µM
TAOK1 (human) = TAOK1 (human) (UniProt Q7L7X3); details: compound 10.0 µM
TGFBR1 (human) = TGFBR1 (human) (UniProt P36897); details: compound 10.0 µM
CAMK2B (human) = CAMK2B (human) (UniProt Q13554); details: compound 10.0 µM
AKT1 (human) = AKT1 (human) (UniProt P31749); details: compound 10.0 µM
MAP4K5 (human) = MAP4K5 (human) (UniProt Q9Y4K4); details: compound 10.0 µM
TBK1 (human) = TBK1 (human) (UniProt Q9UHD2); details: compound 10.0 µM
LRRK2 (human) = LRRK2 (human) (UniProt Q5S007)
Sequence of LRRK2 (human) (Q5S007 whole entry, looked up): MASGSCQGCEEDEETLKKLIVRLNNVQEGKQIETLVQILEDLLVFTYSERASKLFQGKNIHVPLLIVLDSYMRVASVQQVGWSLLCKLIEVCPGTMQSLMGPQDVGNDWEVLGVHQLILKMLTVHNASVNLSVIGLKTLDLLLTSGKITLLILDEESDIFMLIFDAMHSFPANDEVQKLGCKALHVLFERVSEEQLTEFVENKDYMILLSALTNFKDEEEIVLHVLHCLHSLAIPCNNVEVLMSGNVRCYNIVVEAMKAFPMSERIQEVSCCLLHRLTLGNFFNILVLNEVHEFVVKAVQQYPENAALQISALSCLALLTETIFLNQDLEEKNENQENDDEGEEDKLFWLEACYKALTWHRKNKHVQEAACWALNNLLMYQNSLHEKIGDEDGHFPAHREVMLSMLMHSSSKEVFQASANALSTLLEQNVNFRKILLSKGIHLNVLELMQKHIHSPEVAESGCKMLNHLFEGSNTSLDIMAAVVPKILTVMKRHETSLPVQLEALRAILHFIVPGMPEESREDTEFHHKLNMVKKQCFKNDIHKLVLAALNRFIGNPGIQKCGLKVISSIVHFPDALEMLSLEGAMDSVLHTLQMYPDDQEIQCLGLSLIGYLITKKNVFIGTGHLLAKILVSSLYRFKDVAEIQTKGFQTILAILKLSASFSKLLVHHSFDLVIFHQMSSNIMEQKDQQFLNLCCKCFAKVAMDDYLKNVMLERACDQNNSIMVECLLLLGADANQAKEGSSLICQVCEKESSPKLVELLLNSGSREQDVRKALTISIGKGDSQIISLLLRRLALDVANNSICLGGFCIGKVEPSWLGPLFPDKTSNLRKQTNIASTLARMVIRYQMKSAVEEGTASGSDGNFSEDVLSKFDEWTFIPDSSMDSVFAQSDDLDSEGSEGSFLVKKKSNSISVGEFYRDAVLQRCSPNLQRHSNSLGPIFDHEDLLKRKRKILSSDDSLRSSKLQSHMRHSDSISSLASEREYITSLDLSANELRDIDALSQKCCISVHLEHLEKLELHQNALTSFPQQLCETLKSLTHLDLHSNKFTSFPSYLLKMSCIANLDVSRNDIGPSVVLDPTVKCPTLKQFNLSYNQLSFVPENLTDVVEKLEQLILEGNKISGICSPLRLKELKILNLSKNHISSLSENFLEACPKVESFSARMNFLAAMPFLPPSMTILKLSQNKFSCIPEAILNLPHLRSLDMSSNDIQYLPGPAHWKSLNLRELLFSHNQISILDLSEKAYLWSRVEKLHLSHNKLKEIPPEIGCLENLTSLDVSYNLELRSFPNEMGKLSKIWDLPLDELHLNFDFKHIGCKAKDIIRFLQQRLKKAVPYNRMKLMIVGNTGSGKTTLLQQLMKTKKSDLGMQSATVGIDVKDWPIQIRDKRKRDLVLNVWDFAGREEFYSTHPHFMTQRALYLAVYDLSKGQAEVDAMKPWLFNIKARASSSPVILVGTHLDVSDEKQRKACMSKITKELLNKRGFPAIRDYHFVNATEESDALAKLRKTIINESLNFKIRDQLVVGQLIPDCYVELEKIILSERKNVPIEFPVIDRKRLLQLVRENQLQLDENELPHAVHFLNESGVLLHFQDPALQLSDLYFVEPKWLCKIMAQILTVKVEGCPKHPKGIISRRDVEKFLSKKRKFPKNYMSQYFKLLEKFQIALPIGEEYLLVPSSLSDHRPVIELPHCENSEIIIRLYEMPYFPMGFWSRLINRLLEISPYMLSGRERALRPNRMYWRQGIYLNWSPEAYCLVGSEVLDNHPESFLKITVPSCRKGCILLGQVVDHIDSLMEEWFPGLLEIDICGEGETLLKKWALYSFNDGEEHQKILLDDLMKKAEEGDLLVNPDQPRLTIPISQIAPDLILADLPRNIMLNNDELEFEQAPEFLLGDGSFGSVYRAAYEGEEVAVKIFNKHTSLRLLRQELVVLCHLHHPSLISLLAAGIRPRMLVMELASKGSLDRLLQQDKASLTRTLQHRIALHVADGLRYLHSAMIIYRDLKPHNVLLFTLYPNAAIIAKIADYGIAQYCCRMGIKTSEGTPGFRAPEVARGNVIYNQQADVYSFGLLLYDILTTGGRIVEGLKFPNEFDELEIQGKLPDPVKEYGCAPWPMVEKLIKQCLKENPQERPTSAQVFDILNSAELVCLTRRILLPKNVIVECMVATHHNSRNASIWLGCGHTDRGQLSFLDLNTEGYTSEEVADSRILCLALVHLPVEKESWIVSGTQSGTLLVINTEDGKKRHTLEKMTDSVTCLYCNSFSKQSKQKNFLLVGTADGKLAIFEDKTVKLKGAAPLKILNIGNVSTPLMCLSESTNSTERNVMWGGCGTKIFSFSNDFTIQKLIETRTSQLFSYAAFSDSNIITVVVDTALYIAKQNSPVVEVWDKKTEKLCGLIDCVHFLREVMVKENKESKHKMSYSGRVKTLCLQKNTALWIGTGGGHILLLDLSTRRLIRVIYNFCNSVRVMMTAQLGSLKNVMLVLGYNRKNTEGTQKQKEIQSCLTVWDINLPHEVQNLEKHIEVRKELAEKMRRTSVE

ERBB3 (human) = ERBB3 (human) (UniProt P21860); details: compound 10.0 µM
MAP3K1 (human) = MAP3K1 (human) (UniProt Q13233); details: compound 10.0 µM
[2] = system: EGFR (human), P00533 [L861Q]; details: compound 10.0 µM
EPHB4 (human) = EPHB4 (human) (UniProt P54760); details: compound 10.0 µM
MAPK8 (human) = MAPK8 (human) (UniProt P45983); details: compound 10.0 µM
[3] = system: PIK3CA (human), P42336 [E545A]; details: compound 10.0 µM
MST1R (human) = MST1R (human) (UniProt Q04912); details: compound 10.0 µM
Sequence of MST1R (human) (Q04912 whole entry, looked up): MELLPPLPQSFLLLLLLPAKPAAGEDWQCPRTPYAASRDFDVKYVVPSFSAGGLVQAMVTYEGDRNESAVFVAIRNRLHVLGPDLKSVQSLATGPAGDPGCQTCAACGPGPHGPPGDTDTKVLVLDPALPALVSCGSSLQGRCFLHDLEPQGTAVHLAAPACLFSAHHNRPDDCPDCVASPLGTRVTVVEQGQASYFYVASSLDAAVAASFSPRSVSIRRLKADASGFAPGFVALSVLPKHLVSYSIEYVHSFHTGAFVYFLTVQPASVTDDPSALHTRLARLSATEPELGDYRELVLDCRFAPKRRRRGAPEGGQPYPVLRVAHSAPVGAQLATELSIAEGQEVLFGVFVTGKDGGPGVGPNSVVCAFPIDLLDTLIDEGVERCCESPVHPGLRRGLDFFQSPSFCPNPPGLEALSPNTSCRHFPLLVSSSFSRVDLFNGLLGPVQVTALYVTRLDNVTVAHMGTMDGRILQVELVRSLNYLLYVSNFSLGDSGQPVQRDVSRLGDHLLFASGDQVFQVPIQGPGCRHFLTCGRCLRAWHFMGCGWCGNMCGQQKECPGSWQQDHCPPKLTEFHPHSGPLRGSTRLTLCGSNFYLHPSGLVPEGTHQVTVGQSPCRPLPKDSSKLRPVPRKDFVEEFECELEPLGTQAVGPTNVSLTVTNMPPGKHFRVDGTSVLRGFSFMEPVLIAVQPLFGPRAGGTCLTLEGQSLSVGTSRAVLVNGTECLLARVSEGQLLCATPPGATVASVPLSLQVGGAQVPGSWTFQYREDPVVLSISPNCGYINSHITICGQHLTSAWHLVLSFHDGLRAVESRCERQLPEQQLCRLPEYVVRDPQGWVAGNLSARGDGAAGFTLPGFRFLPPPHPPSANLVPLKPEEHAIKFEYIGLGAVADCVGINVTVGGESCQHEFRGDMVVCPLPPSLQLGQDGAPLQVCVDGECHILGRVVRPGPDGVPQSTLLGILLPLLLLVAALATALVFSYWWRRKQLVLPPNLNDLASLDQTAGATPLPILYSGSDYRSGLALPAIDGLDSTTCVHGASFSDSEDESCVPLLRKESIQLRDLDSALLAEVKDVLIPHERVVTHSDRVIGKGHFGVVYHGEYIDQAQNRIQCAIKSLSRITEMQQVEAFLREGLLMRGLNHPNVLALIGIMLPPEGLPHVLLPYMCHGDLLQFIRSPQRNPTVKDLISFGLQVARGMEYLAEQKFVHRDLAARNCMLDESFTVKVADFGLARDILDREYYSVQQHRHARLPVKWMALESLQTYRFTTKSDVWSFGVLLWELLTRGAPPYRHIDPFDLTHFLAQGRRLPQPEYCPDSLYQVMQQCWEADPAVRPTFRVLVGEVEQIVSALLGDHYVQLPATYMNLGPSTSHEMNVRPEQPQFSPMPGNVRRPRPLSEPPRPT

[4] = system: FLT3 (human), P36888 [D835Y]; details: compound 10.0 µM
TTK (human) = TTK (human) (UniProt P33981); details: compound 10.0 µM
[5] = system: FLT3 (human), P36888 [N841I]; details: compound 10.0 µM
MAP4K3 (human) = MAP4K3 (human) (UniProt Q8IVH8); details: compound 10.0 µM
ADCK4 (human) = ADCK4 (human) (UniProt Q96D53); details: compound 10.0 µM
STK3 (human) = STK3 (human) (UniProt Q13188); details: compound 10.0 µM
[6] = system: EGFR (human), P00533 [746-750 del]; details: compound 10.0 µM
MARK3 (human) = MARK3 (human) (UniProt P27448); details: compound 10.0 µM
NUAK2 (human) = NUAK2 (human) (UniProt Q9H093); details: compound 10.0 µM
STK35 (human) = STK35 (human) (UniProt Q8TDR2); details: compound 10.0 µM
WEE1 (human) = WEE1 (human) (UniProt P30291); details: compound 10.0 µM
EPHA6 (human) = EPHA6 (human) (UniProt Q9UF33); details: compound 10.0 µM
[7] = system: ABL1 (human), P00519 [E255K]; details: compound 10.0 µM
CDK3 (human) = CDK3 (human) (UniProt Q00526); details: compound 10.0 µM

Sequence of PKN3 (M.tuberculosis) (Q6P5Z2 whole entry, looked up): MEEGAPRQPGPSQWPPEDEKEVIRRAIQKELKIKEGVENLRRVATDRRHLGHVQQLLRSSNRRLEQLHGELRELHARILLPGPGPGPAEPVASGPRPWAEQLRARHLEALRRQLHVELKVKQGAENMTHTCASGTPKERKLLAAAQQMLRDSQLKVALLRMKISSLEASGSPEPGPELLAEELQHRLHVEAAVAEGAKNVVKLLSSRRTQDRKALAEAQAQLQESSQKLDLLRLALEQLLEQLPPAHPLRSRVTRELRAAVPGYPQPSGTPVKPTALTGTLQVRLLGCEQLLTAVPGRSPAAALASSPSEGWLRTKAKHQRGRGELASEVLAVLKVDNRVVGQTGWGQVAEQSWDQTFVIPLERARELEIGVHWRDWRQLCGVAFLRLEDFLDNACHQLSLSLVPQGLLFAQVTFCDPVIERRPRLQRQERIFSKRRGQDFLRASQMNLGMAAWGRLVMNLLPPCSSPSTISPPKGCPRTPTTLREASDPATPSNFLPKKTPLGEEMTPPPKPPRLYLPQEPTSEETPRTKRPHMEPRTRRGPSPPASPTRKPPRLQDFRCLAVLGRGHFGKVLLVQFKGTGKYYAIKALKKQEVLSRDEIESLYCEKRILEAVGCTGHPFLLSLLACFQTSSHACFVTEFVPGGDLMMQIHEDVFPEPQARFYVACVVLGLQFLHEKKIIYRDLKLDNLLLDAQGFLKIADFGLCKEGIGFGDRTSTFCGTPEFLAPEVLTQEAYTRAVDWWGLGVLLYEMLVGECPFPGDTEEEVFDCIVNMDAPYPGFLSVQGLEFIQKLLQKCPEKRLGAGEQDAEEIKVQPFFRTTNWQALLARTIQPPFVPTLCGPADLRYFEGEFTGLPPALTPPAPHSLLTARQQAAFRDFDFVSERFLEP

Q: Which results are given for `COc1cc(C(=O)N2CCC(N3CCN(C)CC3)CC2)ccc1Nc1ncc2c(n1)N(C)c1ccccc1C(=O)N2C`?
A: kinase still bound, per cent of control (WEE2 (human)): 100%; kinase still bound, per cent of control (RIPK4 (human)): 74%; kinase still bound, per cent of control (NEK5 (human)): 100%; kinase still bound, per cent of control (PKN3 (M.tuberculosis)): 100%; kinase still bound, per cent of control (MAPK12 (human)): 76%; kinase still bound, per cent of control [1]: 79%; kinase still bound, per cent of control (PAK2 (human)): 65%; kinase still bound, per cent of control (NEK7 (human)): 100%; kinase still bound, per cent of control (IRAK3 (human)): 100%; kinase still bound, per cent of control (KIT (human)): 100%; kinase still bound, per cent of control (CAMK1G (human)): 74%; kinase still bound, per cent of control (PDGFRB (human)): 100%; kinase still bound, per cent of control (RPS6KA4 KD2 (human)): 46%; kinase still bound, per cent of control (TAOK1 (human)): 28%; kinase still bound, per cent of control (TGFBR1 (human)): 100%; kinase still bound, per cent of control (CAMK2B (human)): 62%; kinase still bound, per cent of control (AKT1 (human)): 79%; kinase still bound, per cent of control (MAP4K5 (human)): 100%; kinase still bound, per cent of control (TBK1 (human)): 97%; Kd (LRRK2 (human)): 20 nM; kinase still bound, per cent of control (LRRK2 (human); compound 10.0 µM): 0%; kinase still bound, per cent of control (ERBB3 (human)): 100%; kinase still bound, per cent of control (MAP3K1 (human)): 95%; kinase still bound, per cent of control [2]: 100%; kinase still bound, per cent of control (EPHB4 (human)): 100%; kinase still bound, per cent of control (MAPK8 (human)): 95%; kinase still bound, per cent of control [3]: 98%; kinase still bound, per cent of control (MST1R (human)): 98%; kinase still bound, per cent of control [4]: 100%; kinase still bound, per cent of control (TTK (human)): 28%; kinase still bound, per cent of control [5]: 73%; kinase still bound, per cent of control (MAP4K3 (human)): 71%; kinase still bound, per cent of control (ADCK4 (human)): 94%; kinase still bound, per cent of control (STK3 (human)): 71%; kinase still bound, per cent of control [6]: 72%; kinase still bound, per cent of control (MARK3 (human)): 98%; kinase still bound, per cent of control (NUAK2 (human)): 47%; kinase still bound, per cent of control (STK35 (human)): 100%; kinase still bound, per cent of control (WEE1 (human)): 100%; kinase still bound, per cent of control (EPHA6 (human)): 89%; kinase still bound, per cent of control [7]: 80%; residual activity (CDK3 (human)): 100%
